From PMC12461331, “Screening of Medicines for Malaria Venture Open Boxes Identifies Potent SARS-CoV‑2 Papain-like Protease (PL^pro) Inhibitors” (ACS Omega, 2025)
pEC50: −log10 of the molar value. Values joined by “and” are separate entries in the source; they are usually repeats but may differ in a detail not shown here. Identical values can stand only once. Like-named read-outs stand apart in the source and are kept apart here.

Columns and labels:
SARS-CoV-2 [1] = conditions: for CoV2 Efficacy (delta S0:Sinf): HeLa-ACE2; for Data Mode: Hela-ACE2 % Positive SARS-CoV-2; for S0 / Sinf / nHill: Hela-ACE2 % Positive SARS-CoV-2, curve fit; for SI (average CC50/average EC50): supplement summary
HeLa-ACE2 cells [2] = test system: HeLa-ACE2 cells
[3] = test system: uninfected HeLa-ACE2 cells; conditions: Hela-ACE2 Uninfected Cell Toxicity; for S0 / Sinf / nHill: curve fit; for qAC50: relation in column qAC50 Mode, unit not given
HeLa-ACE2 cells [4] = assay: cells; conditions: Homo sapiens
in vitro [5] = conditions: human, uninfected HeLa-ACE2 cells
SARS-CoV-2 [6] = assay: microbe, parasite or virus in culture; conditions: for AC50: Severe acute respiratory syndrome coronavirus 2, HeLa-ACE2, read-out: Log AC50 (converted)
[7] = female, BALB/c, mouse, 1 h, 2 μM, pH 7.4
physchem [8] = conditions: pH 7.4
in vitro [9] = conditions: PAMPA
physchem [10] = conditions: 25 °C, kinetic from dmso stock
in vitro [11] = conditions: human, microsomes, pH 7.4
in vitro [12] = conditions: CD1, mouse, microsomes, pH 7.4
Plasma stability = conditions: female, BALB/c, mouse, plasma, pH 7.4
[13] = Human liver microsomal stability assay; conditions: human, liver microsomes, pH 7.4
[14] = Mouse liver microsomal stability assay; conditions: CD1, mouse, liver microsomes, pH 7.4
PL^pro = PL^pro (Severe acute respiratory syndrome coronavirus 2, UniProt P0DTD1); conditions: 20 μM compound, 5 μM enzyme, average of triplicates with SD
[15] = Hela-ACE2 CoV-2 Total Cell count
[16] = Hela-ACE2 CoV-2 Total Cell count, curve fit
[17] = HeLa-ACE2, read-out: HeLa-ACE2 Total cells EC50
[18] = uninfected HeLa-ACE2 CC50, supplement summary
[19] = Severe acute respiratory syndrome coronavirus 2, HeLa-ACE2, read-out: CoV-2 EC50
[20] = Severe acute respiratory syndrome coronavirus 2, HeLa-ACE2, read-out: qAC50

Row | SMILES | CoV2 Efficacy (delta S0:Sinf) (SARS-CoV-2 [1]) | Data Mode (SARS-CoV-2 [1]) | S0 (SARS-CoV-2 [1]) | Sinf (SARS-CoV-2 [1]) | nHill (SARS-CoV-2 [1]) | Data Mode (HeLa-ACE2 cells [2]; [15]) | Data Mode [3] | qAC50 [3] | pEC50 (HeLa-ACE2 cells [4]; [17]) | pEC50 (HeLa-ACE2 cells [4]; HeLa-ACE2, read-out: qAC50) | CC50 at 24 h (in vitro [5]; [18]) [nM] | plasma stability remaining 60 min [7] [%] | chromatographic logD (physchem [8]) | Papp at 5 h, 10 μM (in vitro [9]) [×10⁻⁶ cm/s] | solubility kinetic at 24 h (physchem [10]; pH 2, aqueous buffer) [µg/mL] | solubility kinetic at 24 h (physchem [10]; pH 7.4, aqueous buffer) [µg/mL] | microsomal CLint at 0.5 μM (in vitro [11]) [µL/min/mg] | microsomal CLint at 0.5 μM (in vitro [12]) [µL/min/mg] | half-life at 0.5 μM [13] [min] | half-life at 0.5 μM [14] [min] | also measured
1 | CCC(CC)COC(=O)[C@H](C)N[P@](=O)(OC[C@H]1O[C@@](C#N)(c2ccc3c(N)ncnn23)[C@H](O)[C@@H]1O)Oc1ccccc1 [Remdesivir, reference compound] | 101.769 | decreasing | 1.9121 | -99.8572 | 1.898 | increasing | decreasing | 2.1501e-6 | 6.99 | 6.99 | 2150 |  |  |  |  |  |  |  |  |  | SI (average CC50/average EC50) (SARS-CoV-2 [1]): 22.589; S0 (HeLa-ACE2 cells [2]; [16]): -15.3429; Sinf (HeLa-ACE2 cells [2]; [16]): 34.6571; nHill (HeLa-ACE2 cells [2]; [16]): 2.142; HeLa-ACE2 Total Cell Efficacy (Sinf, note + or -) (HeLa-ACE2 cells [2]; infected HeLa-ACE2 total cell count): 2.142; S0 [3]: 13.7985; Sinf [3]: -53.8717; nHill [3]: 1.539; AC50 (HeLa-ACE2 cells [4]; HeLa-ACE2, read-out: Log AC50 (converted)): 102 nM; AC50 at 24 h (in vitro [5]): 2150 nM; pEC50 (SARS-CoV-2 [6]; [19]): 7.02; AC50 (SARS-CoV-2 [6]): 95.2 nM; pEC50 (SARS-CoV-2 [6]; [20]): 7.02
2 | COc1ccc(CC(=O)NC2CCN([C@@H](C)c3cccc4ccccc34)CC2)cc1 [Compound 7] |  |  |  |  |  |  |  |  |  |  |  | 95.21 | 4.27 | 1.03 | > 24.8 | > 15.9 | 205 | 378 | 13.5 | 7.33 | half-life at 2 μM (Plasma stability): 116 h
3 | Cc1cccc(/C=N/Nc2cc(N3CCOCC3)nc(OCCc3ccccn3)n2)c1 [Apilimod, reference compound] | 96.257 | decreasing | 0.02088 | -96.2358 | 1.796 | inactive | decreasing | 5.705e-6 | < 5.62 | < 5.62 | 5700 |  |  |  |  |  |  |  |  |  | SI (average CC50/average EC50) (SARS-CoV-2 [1]): 222.534; S0 [3]: -7.369; Sinf [3]: -100; nHill [3]: 1.671; AC50 at 24 h (in vitro [5]): 5700 nM; pEC50 (SARS-CoV-2 [6]; [19]): 7.59; AC50 (SARS-CoV-2 [6]): 25.6 nM; pEC50 (SARS-CoV-2 [6]; [20]): 7.59
4 | COc1ccc(CNC(=O)[C@@H]2CCN([C@@H](C)c3cccc4ccccc34)C2)cc1 [Compound 15] |  |  |  |  |  |  |  |  |  |  |  | 79.94 | 4.24 | 0.46 | > 23.9 | > 19.1 | 173 | 742 | 16.1 | 3.74 | ΔT m (PL^pro): 0.40 ± 0.06 °C; half-life at 2 μM (Plasma stability): 19.3 h
5 | C[C@@H](c1cccc2ccccc12)N1CCC(C(=O)NCc2ccncc2)CC1 (racemic) [Compound 10] | 103.533 | decreasing (weakly active) | 3.533 | -100 | 4 | inactive | inactive | > 3.984e-5 | < 5.02 | < 5.02 | > 39800 | 97.19 | 3.32 | 1.01 | > 17.3 | > 31 | 75.6 | 110 | 36.7 | 25.3 | ΔT m (PL^pro): 4.65 °C and 4.6 ± 0.1 °C; CC50 at 24 h (in vitro [5]; uninfected HeLa-ACE2 CC50, uninfected HeLa-ACE2 cells, average of triplicates): > 39800 nM; AC50 (SARS-CoV-2 [6]): > 9610 nM; pEC50 (SARS-CoV-2 [6]; Severe acute respiratory syndrome coronavirus 2, HeLa-ACE2, read-out: SARS-CoV-2 EC50, HeLa-ACE2 cells, average of triplicates): < 5.02; pEC50 (SARS-CoV-2 [6]; Severe acute respiratory syndrome coronavirus 2, HeLa-ACE2, read-out: qAC50, Hela-ACE2 % Positive SARS-CoV-2, relation in column qAC50 Mode, unit inferred): < 5.02
6 | COc1ccc(CNC(=O)C2CCN(Cc3cccc4ccccc34)CC2)cc1 [Compound 1] |  |  |  |  |  |  |  |  |  |  |  | 43.36 | 4.18 | 1 | > 24.9 | > 21.8 | 117 | 146 | 23.7 | 18.9 | ΔT m (PL^pro): 0.40 ± 0.08 °C; half-life at 2 μM (Plasma stability): 4.44 h
